System: L929 cell line (mouse fibroblastoma cell line)
Assay: L929 cell viability assay (mTNF-α + Z-VAD-FMK induced necroptosis)
Format: cell-based
Conditions: Mus musculus, L929, 20 h, L929 cells, mTNF-α 0.1 μg/mL + Z-VAD-FMK 5 μM, CellTiter-Glo
Description: L929 cell line (mouse fibroblastoma cell line): purchased from ATCC (American Type Culture Collection) Cell Bank, cultured in 5% CO2, 37° C. incubator, and MEM medium which contains L-Glutamine, with 10% FBS was used. • MEM medium: GIBCO, Cat #11095080; • Fetal bovine serum (FBS): GIBCO, Cat #10099-141C; • Dimethyl sulfoxide (DMSO): Sigma, Cat #D2650; • 0.25% Trypsin-EDTA: GIBCO, Cat #25200072; • Recombinant Mouse TNF-alpha Protein (mTNF-α): R&D system, Cat #410-MT-050; • Pan-Caspase inhibitor (Z-VAD-FMK): Selleckchem, Cat #S7023; • CellTiter-Glo 2.0 Cell Viability Assay kit: Promega, Cat #G9242; • Microwell plate reader: Envision, Perkin Elmer; • 96-well plate: Corning, Cat #3917.
The L929 cells at the logarithmic phase were taken out, and the supernatant was discarded. After trypsinization and cell shedding, 10% FBS-containing medium was added for neutralization, and the supernatant was discarded after centrifugation. The cells were re-suspended using 10% FBS-containing medium, adjusted to 7×10^4 cells/ml, added to 96-well microplate at 70 μL/well, i.e., 4.9×10^3 cells/well. Then the plate was incubated in a 5% CO2, 37° C. cell incubator overnight.
After incubating overnight, the 96-well plate was taken out, the medium was discarded, and the plate was washed with 1% FBS-containing MEM medium. Then 1% FBS-containing MEM medium was added at 70 μL/well, and the plate was cultured in a 5% CO2, 37° C. cell incubator. After incubating for 1 hour, the test compound was diluted to the corresponding concentrations using DMSO with 3-fold serial dilution, then the corresponding concentration of DMSO diluted solution was diluted into 1% FBS-containing MEM medium, and 10 μL/well of the diluted test compound with different concentrations (final concentrations of test compound were 10, 3.33, 1.11, 0.37, 0.12, 0.04, 0.014 and 0.005 μM, while final concentration of DMSO was 0.3%) or 10 μL/well control solution (3% DMSO) were added to the cell culture system respectively, with the total volume being 80 μL/well. Then 10 μL of Z-VAD-FMK solution diluted with 1% FBS-containing MEM medium (final concentration of 5 μM) or 10 μL of control solution (2.5% DMSO) was added to each well, with the total volume being 90 μL/well. The plate was incubated in a 5% CO2, 37° C. cell culture incubator for 1 hour.
After incubating for 1 hour, 10 μL of recombinant mouse TNF-α protein solution diluted with 1% FBS-containing MEM medium (final concentration of 0.1 μg/mL) or 10 μL control solution (1% FBS-containing MEM medium) was added to each well. The plate was incubated in a 5% CO2, 37° C. cell culture incubator for 20 hours.
The cell culture plate was taken out from the incubator, and left to stand at room temperature for 30 minutes. Meanwhile, CellTiter-Glo viability assay kit was put from freezer to room temperature, and 50 μL of CellTiter-Glo reagent was added to all wells, the plate was shaken for 1 minutes, protected from light at room temperature for 10 minutes then read the plate on Envision to get the luminescence signal.
The 96-well plate in the dark was taken out, and the chemiluminescence was determined using the Envision microwell plate reader as the signal value of each well.
The mean signal value of the wells of the mixed solution of recombinant mouse TNF-alpha protein (final concentration of 0.1 μg/mL) and Pan-Caspase inhibitor (final concentration of 5 μM) was used as the lower value, and the mean signal value of the wells without stimulation was used as the upper value. According to the signal value of each well, the inhibition rate of each concentration of every compound was calculated, and the IC50 value of compound was obtained by Model 205 in XL-Fit 5.3 software (ID Business Solutions Limited).
Inhibition rate %=[(Luminescence readout of treated compound−Luminescence readout of positive control)/(Luminescence readout of negative control−Luminescence readout of positive control)]×100%, wherein

| SMILES | IC50 |
| --- | --- |
| CC(C)n1ncc2cnc(C(=O)NC3(c4ccc(-c5cncn(C)c5=O)c(F)c4)CC3)nc21 [Compound 23, N-(1-(3-fluoro-4-(1-methyl-6-oxo-1,6-dihydropyrimidin-5-yl)phenyl)cyclopropyl)-1-isopropyl-1H-pyrazolo[3,4-d]pyrimidine-6-carboxamide] | 2.71 µM |
| CC(C)n1cncc(-c2ccc(C3(NC(=O)c4ncc5cnn([C@H](C)C6CC6)c5n4)CC3)cc2)c1=O [Compound 89, (R)-1-(1-cyclopropylethyl)-N-(1-(4-(1-i-propyl-6-oxo-1,6-dihydropyrimidin-5-yl)phenyl)cyclopropyl)-1H-pyrazolo[3,4-d]pyrimidine-6-carboxamide] | 0.038 µM |
| CC(C)n1cncc(-c2ccc(C3(NC(=O)c4ncc5cnn(-c6ccccc6)c5n4)CC3)cc2)c1=O [Compound 19] | 0.061 µM |
| Cn1cncc(-c2ccc(C3(NC(=O)c4ncc5cnn(-c6ccccc6)c5n4)CC3)cc2)c1=O [Compound 4] | 0.721 µM |
| CC(C)n1cncc(-c2ccc(C3(NC(=O)c4ncc5cnn(C6COC6)c5n4)CC3)cc2)c1=O [Compound 60] | 9.08 µM |
| CC(C)n1cncc(-c2ccc(C3(NC(=O)c4ncc5cnn(C(C)C6CC6)c5n4)CC3)cc2)c1=O (racemic) [Compound 59, 1-(1-cyclopropylethyl)-N-(1-(4-(1-i-propyl-6-oxo-1,6-dihydropyrimidin-5-yl)phenyl)cyclopropyl)-1H-pyrazolo[3,4-d]pyrimidine-6-carboxamide] | 0.017 µM |
| CC(C)n1ncc2cnc(C(=O)NC3(c4ccc(-c5cnc(N)n(C)c5=O)cc4)CC3)nc21 [Compound 30] | 2.59 µM |
| CC(C)n1cncc(-c2ccc(C3(NC(=O)c4ncc5cnn(CC6CC6)c5n4)CC3)cc2F)c1=O [Compound 73] | 0.041 µM |
| CC(C)n1cncc(-c2ccc(C3(NC(=O)c4ncc5cnn(C(C)C)c5n4)CC3)cc2)c1=O [Compound 29, 1-isopropyl-N-(1-(4-(1-isopropyl-6-oxo-1,6-dihydropyrimidin-5-yl)phenyl)cyclopropyl)-1H-pyrazolo[3,4-d]pyrimidine-6-carboxamide] | 0.034 µM |
| CC(C)n1ncc2cnc(C(=O)NC3(c4ccc(-c5cncn(C6CC(F)(F)C6)c5=O)cc4)CC3)nc21 [Compound 65] | 0.861 µM |
| CC(C)n1ncc2cnc(C(=O)NC3(c4ccc(-c5cncn(C6CCOCC6)c5=O)cc4)CC3)nc21 [Compound 77] | 0.151 µM |
| CC(C)Cc1nc(C(=O)NC2(c3ccc(-c4cncn(C(C)C)c4=O)cc3)CC2)ncc1Cl [Compound 22] | 0.028 µM |
| CC(C)n1ncc2cnc(C(=O)NC3(c4ccc(-c5cncn(CC6CC6)c5=O)cc4)CC3)nc21 [Compound 36] | 0.084 µM |
| CC(C)n1ncc2cnc(C(=O)NC3(c4ccc(-c5cncn(CC6(C)CC6)c5=O)cc4)CC3)nc21 [Compound 86] | 0.019 µM |
| CC(C)n1ncc2cnc(C(=O)NC3(c4ccc(-c5cncn(C)c5=O)cc4)CC3)nc21 [Compound 1, 1-isopropyl-N-(1-(4-(1-methyl-6-oxo-1,6-dihydropyrimidin-5-yl)phenyl)cyclopropyl)-1H-pyrazolo[3,4-d]pyrimidine-6-carboxamide] | 1.25 µM |
| CC(C)n1cncc(-c2ccc(C3(NC(=O)c4ncc5cnn(C(C)C)c5n4)CC3)cc2F)c1=O [Compound 35] | 0.154 µM |
| CC(C)n1ncc2cnc(C(=O)NC3(c4ccc(-c5cncn([C@H](C)C(F)(F)F)c5=O)cc4F)CC3)nc21 (stereo in doubt) [Compound 46] | 0.019 µM |
| CC(C)Cc1nc(C(=O)NC2(c3ccc(-c4cncn(C)c4=O)cc3)CC2)ncc1Cl [Compound 6] | 0.299 µM |
| Cn1cncc(-c2ccc(C3(NC(=O)c4noc(Cc5ccccc5)n4)CC3)cc2)c1=O [Compound 9] | 2.81 µM |
| CC(C)n1cncc(-c2ccc(C3(NC(=O)c4ncc5cnn([C@@H](C)C6CC6)c5n4)CC3)cc2)c1=O [Compound 90, (S)-1-(1-cyclopropylethyl)-N-(1-(4-(1-i-propyl-6-oxo-1,6-dihydropyrimidin-5-yl)phenyl)cyclopropyl)-1H-pyrazolo[3,4-d]pyrimidine-6-carboxamide] | 0.012 µM |
| CC(C)n1cncc(-c2cc(F)c(C3(NC(=O)c4ncc5cnn(C(C)C)c5n4)CC3)c(F)c2)c1=O [Compound 92] | 3.13 µM |

| SMILES | IC50 |
| --- | --- |
| Cn1cncc(-c2ccc(C3(NC(=O)c4cc(Cc5ccccc5)on4)CC3)cc2)c1=O [Compound 5] | 2.5 µM |
| Cn1cncc(-c2ccc(C3(NC(=O)c4nc5n(n4)[C@@H](c4ccccc4)CC5)CC3)cc2)c1=O [Compound 54, (R)—N-(1-(4-(1-methyl-6-oxo-1,6-dihydropyrimidin-5-yl)phenyl)cyclopropyl)-5-phenyl-6,7-dihydro-5H-pyrrolo[1,2-b][1,2,4]triazole-2-carboxamide] | 0.578 µM |
| CC(C)n1cncc(-c2ccc(C3(NC(=O)c4nnc(Cc5ccccc5)o4)CC3)cc2)c1=O [Compound 13] | 0.195 µM |
| CC(C)n1ncc2cnc(C(=O)NC3(c4ccc(-c5cncn(C)c5=O)cn4)CC3)nc21 [Compound 2] | 7.45 µM |
| CC(C)n1cncc(-c2ccc(C3(NC(=O)c4ncc5cnn(C(C)C)c5n4)CC3)c(F)c2Cl)c1=O [Compound 91] | 0.786 µM |
| CC(C)n1ncc2cnc(C(=O)NC3(c4ccc(-c5cncn(CC6CCC6)c5=O)cc4)CC3)nc21 [Compound 66] | 0.053 µM |
| CC(C)n1ncc2cnc(C(=O)NC3(c4ccc(-c5cncn(C)c5=O)c(Cl)c4)CC3)nc21 [Compound 25] | 7.6 µM |
| Cn1cncc(-c2ccc(C3(NC(=O)c4ncn(Cc5ccccc5)n4)CC3)cc2)c1=O [Compound 8] | 1.76 µM |
| CC(C)n1ncc2cnc(C(=O)NC3(c4ccc(-c5cncn(C6(C)CCC6)c5=O)cc4)CC3)nc21 [Compound 79] | 0.01 µM |
| CCn1cncc(-c2ccc(C3(NC(=O)c4ncc5cnn(C(C)C)c5n4)CC3)cc2)c1=O [Compound 37] | 0.186 µM |
| CC(C)n1ncc2cnc(C(=O)NC3(c4cc(F)c(-c5cncn(CC6CC6)c5=O)cc4F)CC3)nc21 [Compound 94] | 0.05 µM |
| CC(C)n1ncc2cnc(C(=O)NC3(c4ccc(-c5cncn([C@@H](C)C(F)(F)F)c5=O)cc4)CC3)nc21 [Compound 40] | 0.109 µM |
| Cn1cncc(-c2ccc(C3(NC(=O)c4nnc(Cc5ccccc5)[nH]4)CC3)cc2)c1=O [Compound 3] | 4.28 µM |
| CC(C)n1cncc(-c2ccc(C3(NC(=O)c4ncc5cnn(C(C)C)c5n4)CC3)cc2Cl)c1=O [Compound 33] | 0.665 µM |
| C[C@H](n1cncc(-c2ccc(C3(NC(=O)c4ncc5cnn(CC6CC6)c5n4)CC3)cc2)c1=O)C(F)(F)F [Compound 68] | 0.032 µM |
| CC(C)n1cncc(-c2ccc(C3(NC(=O)c4ncc5cnn(C(C)C)c5n4)CC3)c(F)c2F)c1=O [Compound 93] | 0.148 µM |
| CC(C)Cn1cncc(-c2ccc(C3(NC(=O)c4ncc5cnn(C(C)C)c5n4)CC3)cc2)c1=O [Compound 45] | 0.058 µM |
| CC(C)n1ncc2cnc(C(=O)NC3(c4ccc(-c5cncn([C@@H](C)C(F)(F)F)c5=O)cc4F)CC3)nc21 (stereo in doubt) [Compound 47] | 0.024 µM |
| CC[C@@H](C)n1cncc(-c2ccc(C3(NC(=O)c4ncc5cnn(C(C)C)c5n4)CC3)cc2)c1=O [Compound 44] | 0.028 µM |
| CC(C)n1ncc2cnc(C(=O)NC3(c4ccc(-c5cncn([C@@H](C)C6CC6)c5=O)cc4)CC3)nc21 [Compound 85, (S)—N-(1-(4-(1-(1-cyclopropylethyl)-6-oxo-1,6-dihydropyrimidin-5-yl)phenyl)cyclopropyl)-1-i-propyl-1H-pyrazolo[3,4-d]pyrimidine-6-carboxamide] | 0.013 µM |

Source: patent US20240002388A1, “PYRIMIDINONE COMPOUNDS AND USES THEREOF” (HUTCHISON MEDIPHARMA LIMITED, priority 2020, published 2024)
